Test system: Elongator complex protein 1 (ELP1, also referred to as IKBKAP)
Experiment: IKBKAP-HTRF assay (IKBKAP protein in lysates of FD patient-derived fibroblasts)
Type: cell-based, human
Details: 48 hours incubation, 7-point concentration curve
In short: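 FD patient-derived fibroblasts (10,000/well) were treated 48 h at 37 °C with a 7-point, 3.16-fold compound series in triplicate, then lysed. IKBKAP was read by sandwich HTRF (donor/acceptor anti-IKAP antibodies, overnight at 4 °C, 665/620 nm). MFI is ΔF over vehicle ΔF; EC2x is the concentration giving twice the vehicle IKBKAP level.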

Compound | EC2x for IKBKAP protein expression (concentration producing two times the amount of IKBKAP protein vs DMSO vehicle control) | MFI (maximum fold increase in IKBKAP protein abundance relative to the vehicle control)
Cc1c(C[C@@H](N)C(=O)N(C)C)sc2c(NCc3ccco3)cc(Cl)nc12 [Compound 116, 3-(5-chloro-7-{[(furan-2-yl)methyl]amino}-3-methylthieno[3,2-b]pyridin-2-yl)-N,N-dimethyl-D-alaninamide] | **** (between >0.005 μM and ≤0.02 μM is indicated by four stars (****)) | ***** (>4.9 is indicated by five stars (*****))
CS(=O)(=O)C[C@H](N)Cc1sc2c(NCc3ccco3)cc(Cl)nc2c1Br [Compound 117, 2-[(2R)-2-amino-3-(methanesulfonyl)propyl]-3-bromo-5-chloro-N-[(furan-2-yl)methyl]thieno[3,2-b]pyridin-7-amine] | **** (between >0.005 μM and ≤0.02 μM is indicated by four stars (****)) | ***** (>4.9 is indicated by five stars (*****))
CSC[C@H](N)Cc1sc2c(NCc3ccco3)cc(Cl)nc2c1Br [Compound 118, 2-[(2R)-2-amino-3-(methylsulfanyl)propyl]-3-bromo-5-chloro-N-[(furan-2-yl)methyl]thieno[3,2-b]pyridin-7-amine] | ***** (≤0.005 μM is indicated by five stars (*****)) | ***** (>4.9 is indicated by five stars (*****))
C=C[C@H](N)Cc1cc2nc(Cl)cc(NCc3ccco3)c2s1 [Compound 119, 2-[(2R)-2-aminobut-3-en-1-yl]-5-chloro-N-[(furan-2-yl)methyl]thieno[3,2-b]pyridin-7-amine] | **** (between >0.005 μM and ≤0.02 μM is indicated by four stars (****)) | **** (between >3.9 and ≤4.9 is indicated by four stars (****))
N[C@H](Cc1sc2c(NCc3ccco3)cc(Cl)nc2c1Cl)C(=O)Nc1ccccc1F [Compound 120, 3-(3,5-dichloro-7-{[(furan-2-yl)methyl]amino}thieno[3,2-b]pyridin-2-yl)-N-(2-fluorophenyl)-D-alaninamide] | **** (between >0.005 μM and ≤0.02 μM is indicated by four stars (****)) | **** (between >3.9 and ≤4.9 is indicated by four stars (****))
N[C@H](Cc1sc2c(NCc3ccco3)cc(Cl)nc2c1Cl)C(=O)O [Compound 121, 3-(3,5-dichloro-7-{[(furan-2-yl)methyl]amino}thieno[3,2-b]pyridin-2-yl)-D-alanine] | **** (between >0.005 μM and ≤0.02 μM is indicated by four stars (****)) | **** (between >3.9 and ≤4.9 is indicated by four stars (****))
N[C@H](Cc1sc2c(NCc3ccco3)cc(Cl)nc2c1Cl)C(=O)Nc1ccccc1 [Compound 122, 3-(3,5-dichloro-7-{[(furan-2-yl)methyl]amino}thieno[3,2-b]pyridin-2-yl)-N-phenyl-D-alaninamide] | **** (between >0.005 μM and ≤0.02 μM is indicated by four stars (****)) | ***** (>4.9 is indicated by five stars (*****))
C#C[C@H](N)Cc1sc2c(NCc3ccco3)cc(Cl)nc2c1C [Compound 123, 2-[(2R)-2-aminobut-3-yn-1-yl]-3-methyl-5-chloro-N-[(furan-2-yl)methyl]thieno[3,2-b]pyridin-7-amine] | ***** (≤0.005 μM is indicated by five stars (*****)) | ***** (>4.9 is indicated by five stars (*****))

Source: patent US12384797B2, “Thioeno[3,2-b] pyridin-7-amine compounds for treating familial dysautonomia” (PTC THERAPEUTICS, INC., priority 2019, dated 2025)
